Data as given in article PMC6815954, “Rational design of caspase-responsive smart molecular probe for positron emission tomography imaging of drug-induced apoptosis” (Theranostics, 2019).
Like-named read-outs stand apart in the source and are kept apart here.

What was measured:
tumor [1] = conditions: cited from earlier work
Description: Recently, a potential PET imaging agent [^18F]ICMT-11 for monitoring the tumor cell death has been approved for clinical trials, where only a modest increase of 65% uptake can be observed in the treated tumor in comparison with the vehicle control tumor [36].

HeLa xenograft tumor = conditions: for tracer uptake ratio in DOX-treated versus untreated tumors: only [^18F]1
Protocol: BALB/c nude mice (18-20 g, 4-6 weeks old) were used for animal experiments. Mice were housed with free access to food and water, and allowed ample time to acclimatize before the experiments. The tumor models were established by subcutaneous injection of human cervical cancer cells HeLa (1~2×10^6) suspended in PBS (100 µL) in the right shoulder or the posterior limb of the nude mouse. The tumors were allowed to grow for around 3-4 weeks to reach the size of 0.5-1.0 cm in diameter. Then, a subset of mice were treated with intratumoral or intravenous injection of DOX (0.2 mg, in 20 µL). Three days later, the animals were used for PET imaging and then the tumors were removed for the analysis of caspase-3 activity. All procedures were approved by the Animal Care and Ethics Committee of Jiangsu Institute of Nuclear Medicine.
PET scanning was carried out using an Inveon Dedicated microPET scanner (Siemens). In all experiments, the mice were anesthetized with isoflurane (2% isoflurane in oxygen at a flow rate of 2 L/min). One group of HeLa-bearing mice were scanned at baseline (without DOX treatment) as a control. For the experimental groups, microPET imaging was performed for one group of mice three days after a single intratumoral injection of DOX (0.2 mg) and the other group was performed after intravenous injection of DOX (0.2 mg) every 4 days for a total of three administrations. The probe [^18F]1 (~100 μCi, in 100 μL physiological saline) was administrated by intravenous injection via the tail vein. For the co-injection group, the mice were administrated by intravenous injection of the probe [^18F]1 with the precursor 1 (20 µmol/kg) via the tail vein. PET images were acquired in a list mode date for 60 min. The PET data were binned into 12 frames and each frame was reconstructed with the OSEM3D/MAP algorithm using microPET Manager (version 6869, Siemens). The reconstructed pixel size was 0.78 × 0.78 × 0.80 mm on a 128 × 128 × 159 image matrix. All PET images were corrected for decay but not for attenuation. Each image was analyzed using ASIPro software (Siemens). […]

HeLa cells = assay: Cellular uptake assay of [^18F]1; type: cell-based, human
Protocol: green fluorescence) for 6 h. The active caspase-3 was stained with anti-caspase-3 primary antibody and a Cy3-labeled secondary antibody (red fluorescence). The cell nuclei were stained with DAPI (blue fluorescence). The images of 1-FITC and active caspase-3 were merged in the last column.
HeLa cells were seeded into a 6-well plate and incubated for 24 h at 37 °C. The cells were cultured in the presence of DOX (2 µM) at 37 °C for 0, 2, 4, 6, 12, and 24 h, respectively. The probe [ 18F]1 (1.0 µCi, 0.037 MBq) was added to each well and incubated for additional 4 h at 37 °C. For inhibition assay, the caspase inhibitor Z-VAD-FMK (50 µM) was added to the DOX-treated cells for 48 h before the addition of [ 18F]1. To study the influence of cold compound 1 on cellular uptake of [ 18F]1 in DOX-treated or untreated cells, HeLa cells were incubated with the cold compound 1 (10 µM) and [ 18F]1 for 4 h at 37 °C.The cells were harvested withcentrifugal separationat 4,000 rpm for 5 min after washing twice with PBS. Then Tryp-LE TM Express (1 mL) was added and the cells were kept for 1-2 min to allow detaching. The cell/Tryp-LE solution was counted by a γ counter and the activity was normalized to the protein concentration (determined by comparison with BSA standard in an absorption assay from Pierce) in each vial.
Figure S23. […]

tumor [2] = system: tumor; parameters: method as in PMID 25972517; conditions: cited from earlier work
[3] = system: activated caspase-3 (19/17 kDa); assay: Western blotting of tumor and muscle lysates; type: in vivo, BALB/c nude mice; conditions: DOX intratumoral; normalized to β-actin; n = 3
Protocol: At the end of microPET imaging, DOX-treated or untreated mice were killed. Tumor and muscle tissues (~100 mg) were homogenized by an electronic homogenate machine in RIPA lysis buffer (1 mL) containing protease and phosphatase inhibitors (Halt Protease Inhibitor Cocktail, Thermo Fisher Scientific Inc.). Soluble lysates were harvested by centrifugation at 12,000 rpm for 10 min at 4 °C. Protein content was measured using BCA protein assay kit and 40 μg of protein was separated with a 12% SDS-PAGE gel. After blotting to PVDF membrane, the membranes were blocked with 5% skimmed milk in tris-buffered saline (TBS, pH 7.4) for 60 min at room temperature and incubated overnight at 4 °C in buffer (TBS with 0.1% Tween-20 and 5% skimmed milk) containing different antibodies. Detection of primary antibody was performed with HRP-conjugated secondary antibody. Immunoreactive bands were visualized with Western blotting luminol reagent. Densitometric analysis was performed using Image J software.

[4] = system: intact caspase-3 (35 kDa); assay: Western blotting of DOX-treated HeLa cells, intact caspase-3; type: cell-based, human; conditions: 24 h
Protocol: (§1) Western blotting analysis of caspase-3 activity in DOX-treated HeLa cells HeLa cells were seeded into 6-well plates at the density of 5 ×10^5 cells/well, followed by treatment with various concentrations of DOX for 24 h. Cells were washed with ice-cold PBS and then lysed at 4 °C for 5 min with RIPA lysis buffer containing protease and phosphatase inhibitors (Halt Protease Inhibitor Cocktail, Thermo Fisher Scientific Inc.). Soluble lysates were harvested by centrifugation at 12,000 rpm for 10 min at 4 °C. The content of protein was […]
(§2) (1 picture or pasted object on this page, not shown here) […]
(§3) measured using BCA protein assay kit and 40 μg of protein was separated with a 12% […]
(§4) SDS-PAGE gel. After blotting to PVDF membrane, the membranes were blocked with 5% […]
(§5) skimmed milk in tris-buffered saline (TBS, pH 7.4) for 60 min at room temperature and […]
(§6) incubated overnight at 4 °C in buffer (TBS with 0.1% Tween-20 and 5% skimmed milk) […]
(§7) containing different antibodies. Detection of primary antibodies was performed with […]
(§8) HRP-conjugated secondary antibody. Immunoreactive bands were visualized with Western […]
(§9) blotting luminol reagent. Densitometric analysis was performed using Image J software. […]
(§10) The DOX-treated group was cultured in the presence of DOX (2 µM) […]
(§11) for 6 h at 37 °C, then the medium was changed and the cells were cultured for another 24 h at […]
(§12) 37 °C. After incubated with 1-FITC (2 µM) for 6 h at 37 °C, the cells were washed with PBS, […]
(§13) fixed with 3.7% formaldehyde in PBS and permeabilized with 0.1% Triton X-100 in PBS for […]
(§14) 30 min at room temperature. Cells were blocked with 5% BSA in PBS for 30 min, and then […]
(§15) washed with PBS. Afterwards, cells were incubated with anti-caspase-3 antibody (caspase-3 […]
(§16) rabbit monoclonal antibody, Beyotime) overnight at 4 °C, washed with PBS, and incubated […]
(§17) with Cy3-labeled goat anti-rabbit IgG (Beyotime) for 1 h. Cells were washed with PBS […]
(§18) andstained with DAPI (5 µg/mL) for 2 min, and thenwashed twice with PBS. Finally, the cells […]
(§19) were viewed with the Olympus Xcellence. […]

[5] = system: active caspase-3 (19/17 kDa); assay: Western blotting of DOX-treated HeLa cells, active caspase-3; type: cell-based, human; conditions: 24 h
Protocol: as §1, §2, §3, §4, §5, §6, §7, §8, §9, §10, §11, §12, §13, §14, §15, §16, §17, §18, §19

**Q.** For `O=C1C(=O)N(Cc2cn(CC[18F])nn2)c2ccc(S(=O)(=O)N3CCCC3COc3ccc(F)cc3F)cc21` (stereo not shown) [[^18F]ICMT-11], which “increase of uptake in treated tumor versus vehicle control tumor” value (tumor [1]) is on record?
**A.** The value was 65%.

**Q.** Which “tumor-to-muscle uptake ratio in treated apoptotic tumor model relative to untreated group” value (HeLa xenograft tumor; 20 min post injection) does the source give for “[^18F]DEVD-Cys(StBu)-PPG(CBT)-AmBF3 [[^18F]1]” here?
**A.** Its value is “more than two folds”.

**Q.** What about the “tracer uptake ratio in DOX-treated versus untreated tumors” value (HeLa xenograft tumor; DOX intratumoral, 15-20 min post injection) of the same molecule?
**A.** Its value is 4.23.

**Q.** And the “tracer uptake ratio in DOX-treated versus untreated tumors” value (HeLa xenograft tumor; DOX intravenous)?
**A.** The value was 3.01.

**Q.** And the “uptake with versus without addition of cold compound 1” value (HeLa cells; DOX-untreated HeLa, cold 1 10 µM, 4 h, 37 °C)?
**A.** The value was “almost identical”.

**Q.** What about the “retained [^18F] activity in DOX-treated cells with caspase inhibitor, versus untreated tumor cells” value (HeLa cells; HeLa, DOX 24 h, Z-VAD-FMK 50 µM for 48 h before [^18F]1) of the same molecule?
**A.** Its value is “almost identical”.

**Q.** With `OC[C@H]1OC(O)[C@H]([18F])[C@@H](O)[C@@H]1O` (stereo partly shown) [^18F-FDG] as the molecule, how does the “response to cell death” value (tumor [2]) read?
**A.** The value was “no differentiated response”.

**Q.** What does the source list for `CC(CCCCC[18F])(C(=O)O)C(=O)O` [^18F-ML-10]?
**A.** differential response to treatment (tumor [2]): little differential response; response to cell death (tumor [2]): no differentiated response

**Q.** For `COc1cccc2c1C(=O)c1c(O)c3c(c(O)c1C2=O)C[C@@](O)(C(=O)CO)C[C@@H]3O[C@H]1C[C@H](N)[C@H](O)[C@H](C)O1` [DOX, doxorubicin], which “expression level of activated caspase-3 in DOX-treated tumor versus muscle” value [3] is on record?
**A.** Its value is 7.5 folds.

**Q.** What about the “expression level of activated caspase-3 in DOX-treated tumor versus untreated tumor” value [3] of the same molecule?
**A.** Its value is 4.5 folds.

**Q.** And the “decrease of intact caspase-3 expression versus DOX-untreated cells” value (“decrease” below) ([4]; 0.5 µM DOX)?
**A.** The value was 1.3 folds.

**Q.** And the “decrease” value ([4]; 1 µM DOX)?
**A.** The value was 1.5 folds.

**Q.** What about the “decrease” value ([4]; 2 µM DOX) of the same molecule?
**A.** The value was 2.1 folds.

**Q.** And the “decrease” value ([4]; 4 µM DOX)?
**A.** The value was 2.2 folds.

**Q.** What about the “increase of active caspase-3 expression versus DOX-untreated cells” value ([5]; 0.5 µM DOX) of the same molecule?
**A.** The value was 3.3 folds.

**Q.** And the “increase of active caspase-3 expression versus DOX-untreated cells” value ([5]; 1 µM DOX)?
**A.** The value was 9.3 folds.

**Q.** And the “increase of active caspase-3 expression versus DOX-untreated cells” value ([5]; 2 µM DOX)?
**A.** The value was 13.4 folds.

**Q.** And the “increase of active caspase-3 expression versus DOX-untreated cells” value ([5]; 4 µM DOX)?
**A.** The value was 15.5 folds.
